# Measurements from ChEMBL document CHEMBL1151200, “Comparison of fascaplysin and related alkaloids: a study of structures, cytotoxicities, and sources” (J Nat Prod, 2004).
# What was measured:
# [1] = Cytotoxicity against human H116 cells at 3.4 ug/disk by disk diffusion soft agar colony formation assay; type: functional
# [2] = Cytotoxicity against human H125 cells at 0.8 ug/disk by disk diffusion soft agar colony formation assay; type: functional
# [3] = Cytotoxicity against human H125 cells at 3.4 ug/disk by disk diffusion soft agar colony formation assay; type: functional
# [4] = Cytotoxicity against mouse CFU-GM cells at 3.4 ug/disk by disk diffusion soft agar colony formation assay; type: cell-based
# CCRF-CEM [5] = experiment: Cytotoxicity against human CEM cells at 3.4 ug/disk by disk diffusion soft agar colony formation assay; type: functional
# CCRF-CEM [6] = experiment: Cytotoxicity against human CEM cells at 0.8 ug/disk by disk diffusion soft agar colony formation assay; type: functional
# MC-38 [7] = experiment: Cytotoxicity against mouse C38 cells at 3.4 ug/disk by disk diffusion soft agar colony formation assay; type: functional
# L1210 [8] = experiment: Cytotoxicity against mouse L1210 cells at 3.4 ug/disk by disk diffusion soft agar colony formation assay; type: functional
# [9] = Cytotoxicity against human H116 cells at 0.8 ug/disk by disk diffusion soft agar colony formation assay; type: functional
# [10] = Cytotoxicity against human H116 cells at 200 ug/disk by disk diffusion soft agar colony formation assay; type: functional
# L1210 [11] = experiment: Cytotoxicity against mouse L1210 cells at 200 ug/dusk by disk diffusion soft agar colony formation assay; type: functional
# MC-38 [12] = experiment: Cytotoxicity against mouse C38 cells at 200 ug/disk by disk diffusion soft agar colony formation assay; type: functional
# [13] = Cytotoxicity against mouse CFU-GM cells at 200 ug/disk by disk diffusion soft agar colony formation assay; type: cell-based
# RXF 393 = experiment: Antitumor activity against human RXF393 cells; type: functional, cell-based
# OVCAR-4 = experiment: Antitumor activity against human OVCAR4 cells; type: functional, cell-based
# IGROV-1 = experiment: Antitumor activity against human IGROV1 cells; type: functional, cell-based
# MOLT-4 = experiment: Antitumor activity against human MOLT4 cells; type: functional, cell-based
# U-251 = experiment: Antitumor activity against human U251 cells; type: functional, cell-based
# [14] = Antitumor activity against human 786-O cells; type: functional, cell-based; details: 786-0
# SW-620 = experiment: Antitumor activity against human SW620 cells; type: functional, cell-based
# [15] = Antitumor activity against human Hs 578T cells; type: functional, cell-based
# NCI-H322M = experiment: Antitumor activity against human NCI-H322M cells; type: functional, cell-based
# NCI-H522 = experiment: Antitumor activity against human NCI-H522 cells; type: functional, cell-based
# OVCAR-5 = experiment: Antitumor activity against human OVCAR5 cells; type: functional, cell-based
# HCC 2998 = experiment: Antitumor activity against human HCC2998 cells; type: functional, cell-based
# CCRF-CEM [16] = experiment: Antitumor activity against human CCRF-CEM cells; type: functional, cell-based
# SK-OV-3 = experiment: Antitumor activity against human SKOV3 cells; type: functional, cell-based
# MDA-N = experiment: Antitumor activity against human MDA-N cells; type: functional, cell-based
# MDA-MB-435 = experiment: Antitumor activity against human MDA-MB-435 cells; type: functional, cell-based
# ACHN = experiment: Antitumor activity against human ACHN cells; type: functional, cell-based
# MCF7 [17] = experiment: Antitumor activity against human MCF7 cells; type: functional, cell-based
# CAKI-1 = experiment: Antitumor activity against human Caki1 cells; type: functional, cell-based
# UO-31 = experiment: Antitumor activity against human UO31 cells; type: functional, cell-based
# UACC-257 = experiment: Antitumor activity against human UACC257 cells; type: functional, cell-based
# SF-295 = experiment: Antitumor activity against human SF295 cells; type: functional, cell-based
# SK-MEL-28 = experiment: Antitumor activity against human SK-MEL-28 cells; type: functional, cell-based
# SNB-19 = experiment: Antitumor activity against human SNB19 cells; type: functional, cell-based
# HCT-116 = experiment: Antitumor activity against human HCT116 cells; type: functional, cell-based
# [18] = Cytotoxicity against human H125 cells at 0.4 ug/disk by disk diffusion soft agar colony formation assay; type: functional
# HOP-62 = experiment: Antitumor activity against human HOP62 cells; type: functional, cell-based
# NCI-H460 = experiment: Antitumor activity against human NCI-H460 cells; type: functional, cell-based
# SF-539 = experiment: Antitumor activity against human SF539 cells; type: functional, cell-based
# [19] = Cytotoxicity against mouse CFU-GM cells at 0.4 ug/disk by disk diffusion soft agar colony formation assay; type: cell-based
# HT-29 = experiment: Antitumor activity against human HT-29 cells; type: functional, cell-based
# OVCAR-8 = experiment: Antitumor activity against human OVCAR8 cells; type: functional, cell-based
# HL-60(TB) = experiment: Antitumor activity against human HL-60(TB) cells; type: functional, cell-based
# CCRF-CEM [20] = experiment: Cytotoxicity against human CEM cells at 0.4 ug/disk by disk diffusion soft agar colony formation assay; type: functional
# M14 = experiment: Antitumor activity against human M14 cells; type: functional, cell-based
# Malme-3M = experiment: Antitumor activity against human MALME-3M cells; type: functional, cell-based
# NCI-H226 = experiment: Antitumor activity against human NCI-H226 cells; type: functional, cell-based
# SR = experiment: Antitumor activity against human SR cells; type: functional, cell-based
# LOX IMVI = experiment: Antitumor activity against human LOXIMVI cells; type: functional, cell-based
# PC-3 = experiment: Antitumor activity against human PC3 cells; type: functional, cell-based
# L1210 [21] = experiment: Cytotoxicity against mouse L1210 cells at 0.4 ug/disk by disk diffusion soft agar colony formation assay; type: functional
# MCF7 [22] = experiment: Antitumor activity against […] human MCF7 cells; type: functional, cell-based
# RPMI-8226 = experiment: Antitumor activity against human RPMI8226 cells; type: functional, cell-based
# SNB-75 = experiment: Antitumor activity against human SNB75 cells; type: functional, cell-based
# COLO 205 = experiment: Antitumor activity against human COLO205 cells; type: functional, cell-based
# UACC-62 = experiment: Antitumor activity against human UACC62 cells; type: functional, cell-based
# SK-MEL-5 = experiment: Antitumor activity against human SK-MEL-5 cells; type: functional, cell-based
# EKVX = experiment: Antitumor activity against human EKVX cells; type: functional, cell-based
# HCT-15 = experiment: Antitumor activity against human HCT15 cells; type: functional, cell-based
# K562 = experiment: Antitumor activity against human K562 cells; type: functional, cell-based
# NCI-H23 = experiment: Antitumor activity against human NCI-H23 cells; type: functional, cell-based
# A549 = experiment: Antitumor activity against human A549/ATCC cells; type: functional, cell-based
# T47D = experiment: Antitumor activity against human T47D cells; type: functional, cell-based
# KM12 = experiment: Antitumor activity against human KM12 cells; type: functional, cell-based
# SN12C = experiment: Antitumor activity against human SN12C cells; type: functional, cell-based
# [23] = Cytotoxicity against human H116 cells at 0.4 ug/disk by disk diffusion soft agar colony formation assay; type: functional
# BT-549 = experiment: Antitumor activity against human BT549 cells; type: functional, cell-based
# OVCAR-3 = experiment: Antitumor activity against human OVCAR-3 cells; type: functional, cell-based
# MDA-MB-231 = experiment: Antitumor activity against human MDA-MB-231 cells; type: functional, cell-based
# DU-145 = experiment: Antitumor activity against human DU145 cells; type: functional, cell-based
# A498 = experiment: Antitumor activity against human A498 cells; type: functional, cell-based
# SF-268 = experiment: Antitumor activity against human SF268 cells; type: functional, cell-based
# TK-10 = experiment: Antitumor activity against human TK10 cells; type: functional, cell-based
# MC-38 [24] = experiment: Cytotoxicity against mouse C38 cells at 0.4 ug/disk by disk diffusion soft agar colony formation assay; type: functional
# [25] = Cytotoxicity against mouse CFU-GM cells at 18 ug/disk by disk diffusion soft agar colony formation assay; type: cell-based
# CCRF-CEM [26] = experiment: Cytotoxicity against human CEM cells at 18 ug/disk by disk diffusion soft agar colony formation assay; type: functional
# L1210 [27] = experiment: Cytotoxicity against mouse L1210 cells at 18 ug/disk by disk diffusion soft agar colony formation assay; type: functional
# MC-38 [28] = experiment: Cytotoxicity against mouse C38 cells at 18 ug/disk by disk diffusion soft agar colony formation assay; type: functional
# [29] = Cytotoxicity against human H125 cells at 18 ug/disk by disk diffusion soft agar colony formation assay; type: functional
# [30] = Cytotoxicity against human H116 cells at 18 ug/disk by disk diffusion soft agar colony formation assay; type: functional
compound,measurement,setting,value
O=C1c2ccccc2-[n+]2ccc3c([nH]c4cc(Br)ccc43)c21.[Cl-],Activity,[1],600 Zone units
same,Activity,[2],500 Zone units
same,Activity,[3],750 Zone units
same,Activity,[4],350 Zone units
same,Activity,CCRF-CEM [5],400 Zone units
same,Activity,CCRF-CEM [6],200 Zone units
same,Activity,MC-38 [7],450 Zone units
same,Activity,L1210 [8],550 Zone units
same,Activity,[9],400 Zone units
COC(=O)c1ccc(Br)cc1-[n+]1ccc2c(c1)[nH]c1ccccc12.[Cl-],Activity,[10],200 Zone units
same,Activity,L1210 [11],350 Zone units
same,Activity,MC-38 [12],400 Zone units
same,Activity,[13],250 Zone units
O=C1c2ccccc2-[n+]2ccc3c([nH]c4ccccc43)c21.[Cl-] [FASCAPLYSIN CHLORIDE],IC50,RXF 393,3.5 µM
same,IC50,OVCAR-4,5.3 µM
same,IC50,IGROV-1,4.5 µM
same,IC50,MOLT-4,> 10 µM
same,IC50,U-251,3.6 µM
same,IC50,[14],6.7 µM
same,IC50,SW-620,3.7 µM
same,IC50,[15],> 10 µM
same,IC50,NCI-H322M,5 µM
same,IC50,NCI-H522,4.5 µM
same,IC50,OVCAR-5,4.4 µM
same,IC50,HCC 2998,1.7 µM
same,IC50,CCRF-CEM [16],> 10 µM
same,IC50,SK-OV-3,> 10 µM
same,IC50,MDA-N,0.56 µM
same,IC50,MDA-MB-435,0.56 µM
same,IC50,ACHN,> 10 µM
same,IC50,MCF7 [17],> 10 µM
same,IC50,CAKI-1,6.1 µM
same,IC50,UO-31,> 10 µM
same,IC50,UACC-257,> 10 µM
same,IC50,SF-295,3.9 µM
same,IC50,SK-MEL-28,9.3 µM
same,IC50,SNB-19,6.1 µM
same,IC50,HCT-116,0.6 µM
same,Activity,[18],400 Zone units
same,IC50,HOP-62,4.7 µM
same,IC50,NCI-H460,4.2 µM
same,IC50,SF-539,4.2 µM
same,Activity,[19],200 Zone units
same,IC50,HT-29,> 10 µM
same,IC50,OVCAR-8,> 10 µM
same,IC50,HL-60(TB),> 10 µM
same,Activity,CCRF-CEM [20],300 Zone units
same,IC50,M14,0.92 µM
same,IC50,Malme-3M,0.36 µM
same,IC50,NCI-H226,9.6 µM
same,IC50,SR,> 10 µM
same,IC50,LOX IMVI,> 10 µM
same,IC50,PC-3,> 10 µM
same,Activity,L1210 [21],400 Zone units
same,IC50,MCF7 [22],> 10 µM
same,IC50,RPMI-8226,> 10 µM
same,IC50,SNB-75,5.4 µM
same,IC50,COLO 205,1.2 µM
same,IC50,UACC-62,4.9 µM
same,IC50,SK-MEL-5,2 µM
same,IC50,EKVX,5.1 µM
same,IC50,HCT-15,> 10 µM
same,IC50,K562,> 10 µM
same,IC50,NCI-H23,4.5 µM
same,IC50,A549,4.2 µM
same,IC50,T47D,> 10 µM
same,IC50,KM12,4.6 µM
same,IC50,SN12C,4.2 µM
same,Activity,[23],500 Zone units
same,IC50,BT-549,> 10 µM
same,IC50,OVCAR-3,1.5 µM
same,IC50,MDA-MB-231,> 10 µM
same,IC50,DU-145,4.9 µM
same,IC50,A498,5.2 µM
same,IC50,SF-268,> 10 µM
same,IC50,TK-10,5.4 µM
same,Activity,MC-38 [24],500 Zone units
COC(=O)c1ccccc1-[n+]1ccc2c(c1)[nH]c1ccccc12.[Cl-] [RETICULATINE],Activity,[25],350 Zone units
same,Activity,CCRF-CEM [26],500 Zone units
same,Activity,L1210 [27],450 Zone units
same,Activity,MC-38 [28],600 Zone units
same,Activity,[29],600 Zone units
same,Activity,[30],500 Zone units
